Test results: patent US12035718B2, “Biofilm penetrating compositions and methods” (Nevada Naturals Inc., priority 2017, dated 2024)
Structures can show the parent of a compound that is named as a salt.

Legend:
[1] = tested on: P. aeruginosa; details: literature reports (Musk et al.; Kim et al.); cited from earlier work
[2] = tested on: S. epidermidis; assay: MIC of LAE/SL mixtures (FIG. 8B); format: cell-based; details: Example 8, FIG. 8B; solubilized in DW
Description: In Example 8, different pathogens were tested for MIC (Minimum Inhibitory Concentration) with formulations that comprise combinations of LAE and SL. […] In FIGS. 8A and 8B the active ingredients LAE and SL were solubilized in DW as indicated and were tested. […] FIG. 8B reports MIC on combinations of LAE/SL exposed to S. epidermidis.

[3] = tested on: S. aureus; details: Example 8, FIG. 8A; solubilized in DW
Description: In Example 8, different pathogens were tested for MIC (Minimum Inhibitory Concentration) with formulations that comprise combinations of LAE and SL. […] In FIGS. 8A and 8B the active ingredients LAE and SL were solubilized in DW as indicated and were tested. FIG. 8A reports MIC combination of LAE and SL tested on Candida albicans fungi in duplicate and for gram positive S. aureus. FIG. 8B reports MIC on combinations of LAE/SL exposed to S. epidermidis.

[4] = tested on: Candida albicans; assay: MIC of LAE/SL mixtures (FIG. 7, FIG. 8A); format: cell-based; details: Example 8, FIG. 8A; solubilized in DW
Description: MIC values of various mixtures of N^α-lauroyl arginine ethyl ester HCl salt and sucrose monolaurate in preventing the growth of Candida alibicans were determined. […] In comparing ratios of wt % of SL to wt % of LAE, ratios from 2:1 to 1:2 show enhancement compared to 100 wt % LAE.

[5] = rats; cited from earlier work
[6] = tested on: Streptococcus pyogenes, Streptococcus mitis, Staphylococcus epidermidis, and E. coli; details: 10 wt % of hexylene glycol, in vitro; cited from earlier work

Compound: Ferric ammonium citrate [reference compound]
- biofilm formation, result in words [1]: inhibited biofilm formation in a dose-dependent manner

Compound: CCCCCCCCCCCC(=O)N[C@@H](CCCNC(=N)N)C(=O)OCC [LAE, N^α-lauroyl-L-arginine-ethyl ester]
- biofilm formation, result in words [1]: inhibited biofilm formation

Compound: sucrose laurate [SL]
- MIC, result in words [2]: much higher MIC values than LAE or combinations of LAE/SL
- MIC, result in words [3]: much higher MIC values than LAE or combinations of LAE/SL
- MIC, result in words [4]: much higher MIC values than LAE or combinations of LAE/SL

Compound: CCOC(=O)CC(O)(CC(=O)OCC)C(=O)OCC [triethyl citrate]
- oral LD50 [5]: 7.0 cc/kg

Compound: CC(O)CC(C)(C)O (stereo not shown) [hexylene glycol]
- killing power, comparison [6]: equivalent to 30 wt % of 1,3 butylene glycol or propylene glycol
